Test results taken from US20100285540A1, “Process for the preparation of (R)-Beta-Arylalanines by coupled Racemase/Aminomutase catalysis” (Board of Trustees of Michigan State University, priority 2009, published 2010).
Like-named read-outs stand apart in the source and are kept apart here.

Legend:
[1] = system: amino acid racemase and PAM; assay: Coupled enzyme reaction (racemase + PAM, DKR conditions); type: biochemical; conditions: 0.4 mM racemic α-arylalanine, 200 μg/mL racemase, 100 μg/mL PAM, 20 h
Experimental: Coupled Enzyme Reaction. The coupled enzyme reaction mixture incubated at 31° C. contained partially purified amino acid racemase (200 μg) and PAM (100 μg) in 1 mL of 50 mM phosphate buffer (pH 8.0) containing 5% (v/v) glycerol. Each of the aryl α-amino acids (0.4 mM) were individually added to a separate assay tube containing the coupled enzyme mixture. After 20 h, the reactions were terminated by basification to pH 10-12 (with 0.5 N NaOH solution) and the amino acids were derivatized for quantification by chiral GC/EI-MS analysis as described previously.

[2] = system: previously reported racemase; conditions: naturally occurring aromatic amino acids; cited from earlier work
[3] = biological target: T1, phenylalanine aminomutase (PAM) (Taxus canadensis, UniProt Q6GZ04); assay: Equilibration of α- and β-arylalanines by PAM; type: biochemical; design: His6 (N); made in house; host or cells: E. coli BL21(DE3); conditions: 100 μg PAM, 31° C.; for β-product to α-substrate ratio: after 20 h, 0.4 mM substrate
T1 sequence (Q6GZ04 1-698): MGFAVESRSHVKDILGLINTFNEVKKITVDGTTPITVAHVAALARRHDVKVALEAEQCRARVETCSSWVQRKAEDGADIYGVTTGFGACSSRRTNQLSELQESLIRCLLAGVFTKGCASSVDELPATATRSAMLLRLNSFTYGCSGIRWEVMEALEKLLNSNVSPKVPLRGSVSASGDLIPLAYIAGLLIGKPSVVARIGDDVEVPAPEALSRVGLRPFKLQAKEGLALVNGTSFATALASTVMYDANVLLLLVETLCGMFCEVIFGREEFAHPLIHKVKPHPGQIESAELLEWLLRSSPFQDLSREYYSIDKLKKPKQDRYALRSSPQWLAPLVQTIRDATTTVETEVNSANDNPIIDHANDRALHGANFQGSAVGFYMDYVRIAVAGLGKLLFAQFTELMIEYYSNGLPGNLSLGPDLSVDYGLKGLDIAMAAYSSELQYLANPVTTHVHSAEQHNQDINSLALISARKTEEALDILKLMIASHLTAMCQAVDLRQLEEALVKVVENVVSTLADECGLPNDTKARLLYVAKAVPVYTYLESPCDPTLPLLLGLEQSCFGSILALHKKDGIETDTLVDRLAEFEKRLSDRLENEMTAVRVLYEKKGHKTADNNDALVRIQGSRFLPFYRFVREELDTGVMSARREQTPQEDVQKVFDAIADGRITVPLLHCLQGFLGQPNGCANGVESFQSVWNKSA
Experimental: Assessing the Equilibration Rate of α- and β-Arylalanines by PAM. […] An aliquot was withdrawn from each reaction at five time points (0, 3, 6, 9 and 20 h). The ratio of (R)-β-arylalanine to (S)-α-arylalanine in each aliquot was calculated by GC/EI-MS fragmentation analysis and the abundances of the base peak fragment ions of the amino acid derivatives were compared as described earlier. The relative amount of each α-arylalanine and β-arylalanine at equilibrium was determined by linear regression analysis of the area of the base peak ion of the derivatized α- and β-arylalanines generated in the EI-MS. The peak area was converted to concentration of product (or substrate) by solving the corresponding linear equation, derived by plotting the area of the base peak ion (produced by the corresponding authentic standard in the mass spectrometer) against concentration ranging from 0 to 1.5 mM.

[4] = biological target: T1, phenylalanine aminomutase (PAM); assay: Effect of (R)-α-phenylalanine on PAM activity (kinetic constants)
Experimental: Evaluation of the Effect of (R)-α-Phenylalanine on PAM Activity. Phenylalanine aminomutase (100 μg/mL) was added to 50 mM phosphate buffer (pH 8.0) containing 5% (v/v) glycerol at 31° C. containing either (S)-α-phenylalanine or (R)-β-phenylalanine at a range of concentrations (0.05, 0.10, 0.20, 0.40, 0.75, 1.5, and 3 mM). The reactions were incubated at 31° C. for 90 min under steady state conditions. Identical series of assays were run in parallel for the (S)-α- or (R)-β-phenylalanine as substrates, except 0.2 mM and 0.75 mM of (R)-α-phenylalanine were added separately to each series. Double reciprocal plots of velocity (vo) and concentration were constructed for the forward and reverse PAM reaction data sets. The equation of the best-fit line (R^2=0.98) was determined (Microsoft Excel 2003, Microsoft Corporation, Redmond, Wash.) to calculate the apparent KM and Ki for the appropriate reaction.^17

[5] = biological target: T2, amino acid racemase from Pseudomonas putida (KT2440) (Pseudomonas putida, UniProt Q88GJ9); assay: Racemization of α-arylalanines by amino acid racemase; type: biochemical
T2 construct: His6 (N); made in house; host or cells: E. coli BL21(DE3)
Experimental: Assessing the Racemization Rate of α-Arylalanines by the Amino Acid Racemase. The partially purified (>90%) amino acid racemase (200 μg/mL) was added to 2.5 mL of 50 mM phosphate buffer (pH 8.0) containing 5% (v/v) glycerol and one different (S)-α-arylalanine (1.5 mM) in separate assays; the mixtures were incubated at 31° C. An aliquot was withdrawn from each reaction at five time points (0.5, 10, 30, 60, and 360 min). A similar time course experiment was conducted with (R)-α-phenylalanine.
Cofactor Dependency of the Amino Acid Racemase. To assess whether sufficient PLP, made by the E. coli BL21(DE3) expression host, remained bound to the functional PLP-dependent racemase for the duration of the assay, partially purified enzyme (400 μg) was added to each of two 2-mL assays that contained (S)-α-phenylalanine (1.5 mM). To one assay, exogenous PLP (50 μM) was added, and to the other, no cofactor was added. After 6 h, the contents of the reaction vial without PLP added were divided into two fractions […]; to one fraction was added PLP (50 μM), and the other fraction remained unchanged. Additional (S)-α-phenylalanine was added to a final concentration of 1.5 mM in all three assays, and incubated for 14 h.
Evaluation of the Effect of (R)-β-Phenylalanine on Racemase Activity. The partially purified amino acid racemase (400 μg) in 50 mM phosphate (2 mL, pH 8.0) containing 5% (v/v) glycerol buffer and (S)-α-phenylalanine (0.75 mM) was incubated in separate assays with or without (R)-β-phenylalanine (0.75 mM) added. Aliquots (0.5 mL) of each reaction mixture were withdrawn from each assay at three time points (30, 60 and 360 min). The amino acids in each fraction were derivatized and analyzed by chiral GC/EI-MS as described previously. The mol % of (S)-α-, (R)-α-arylalanine, and (R)-β-arylalanine in each sample were assessed by comparing the abundance of the diagnostic base peak fragment ion (m/z) derived by GC/EI-MS fragmentation for each of the corresponding analytes.

[6] = biological target: T1, phenylalanine aminomutase (PAM); design: His6 (N); made in house; host or cells: E. coli BL21(DE3); conditions: enantiopure (S)-α-phenylalanine, 10 μg/mL enzyme, 10 μM substrate, same temperature; cited from earlier work

T2 sequence (Q88GJ9 25-409): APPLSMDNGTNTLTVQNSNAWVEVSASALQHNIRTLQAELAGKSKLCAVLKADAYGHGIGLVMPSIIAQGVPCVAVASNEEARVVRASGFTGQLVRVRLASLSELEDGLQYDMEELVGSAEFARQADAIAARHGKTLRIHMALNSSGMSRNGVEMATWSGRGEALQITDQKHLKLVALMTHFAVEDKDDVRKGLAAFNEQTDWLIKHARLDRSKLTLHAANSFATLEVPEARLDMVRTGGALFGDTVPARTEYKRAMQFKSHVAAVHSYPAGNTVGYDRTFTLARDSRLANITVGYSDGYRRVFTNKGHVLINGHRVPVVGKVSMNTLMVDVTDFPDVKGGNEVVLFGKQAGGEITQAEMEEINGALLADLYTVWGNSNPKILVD

N[C@@H](Cc1ccccc1)C(=O)O (racemic) [phenylalanine]
increase in conversion to (R)-β-arylalanine under DKR conditions compared to PAM alone [1]: 19% | Vrel [2]: 0.18 | Keq ([3]; racemic substrate 0.4 mM, 20 h): 1.8

NC(Cc1cccs1)C(=O)O (racemic) [2′-thienyl-α-arylalanine, (R,S)-3-(2′-thienyl)alanine]
increase in conversion to (R)-β-arylalanine under DKR conditions compared to PAM alone [1]: 12%

N[C@@H](Cc1c[nH]cn1)C(=O)O [histidine]
Vrel [2]: 1

N[C@H](Cc1ccccc1)C(=O)O [(R)-α-Phenylalanine, (R)-α-phenylalanine]
inhibition of the PAM reaction (forward) ([4]; 0.2 mM and 0.75 mM (R)-α-phenylalanine): did not significantly inhibit | inhibition of the reverse PAM reaction ([4]; (R)-β-phenylalanine as substrate): not inhibited

N[C@@H](Cc1c[nH]c2ccccc12)C(=O)O [tryptophan]
Vrel [2]: 0.004

Cc1ncc(COP(=O)(O)O)c(C=O)c1O [PLP, pyridoxal-5′-phosphate, reference compound]
change in racemase reaction rate with or without supplementation ([5]; 1.5 mM α-arylalanines, exogenous PLP 50 μM): No change in the reaction rate

NC(Cc1ccc(F)cc1)C(=O)O (racemic) [4′-fluoro-α-arylalanine, 2-amino-3-(4′-fluorophenyl)propionic acid]
increase in conversion to (R)-β-arylalanine under DKR conditions compared to PAM alone [1]: 16%

Cc1ccc(CC(N)C(=O)O)cc1 (racemic) [4′-methyl-α-arylalanine, (R,S)-2-amino-3-(4′-methylphenyl)propionic acid]
increase in conversion to (R)-β-arylalanine under DKR conditions compared to PAM alone [1]: 12%

N[C@@H](Cc1cccs1)C(=O)O [(S)-2-thienyl-α-alanine, (S)-3-(2′-thienyl)alanine]
β-product to α-substrate ratio [3]: 0.71

(S)-α-phenylalanine
Vmax ([4]; forward reaction, with (R)-α-phenylalanine, no evident change relative to no inhibitor): 0.1 µmol/min/mg | Km ([4]; read-out: KM of PAM, in the absence of (R)-α-phenylalanine): 700 µM | Km ([4]; read-out: apparent Michaelis constant (KM apparent), forward reaction, in the presence of (R)-α-phenylalanine): 1100 µM | Keq (previous study) [6]: 1.1

N[C@@H](Cc1ccco1)C(=O)O [(S)-2-furanyl-α-alanine, (S)-2-amino-3-(2′-furanyl)propionic acid]
β-product to α-substrate ratio [3]: 0.41

NC(Cc1cccc(F)c1)C(=O)O (racemic) [3′-fluoro-α-arylalanine, 2-amino-3-(3′-fluorophenyl)propionic acid]
increase in conversion to (R)-β-arylalanine under DKR conditions compared to PAM alone [1]: 14%

N[C@H](CC(=O)O)c1ccccc1 [(R)-β-phenylalanine, (R)-3-amino-3-phenylpropionic acid]
substrate of the racemase [5]: nor was (R)-β-amino acid a substrate of the racemase | effect on racemase reaction rate / activity ([5]; β-arylalanine added to racemization of (S)-α-arylalanine): not affect the reaction rate
